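Tested at 5 concentrations; 48 h exposure; 96-well plates; endpoints linearly interpolated, else capped at highest concentration. TGI marks complete inhibition of growth.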
Tests used:
Assay in all cases: NCI-60 cell line screen, 48 h
[1] = test system: A498 renal
[2] = test system: SW-620 colon
[3] = test system: HOP-92 NSCLC
[4] = test system: UO-31 renal
[5] = test system: K-562 leukemia
[6] = test system: CAKI-1 renal
[7] = test system: SK-MEL-5 melanoma
[8] = test system: COLO 205 colon
[9] = test system: HL-60(TB) leukemia
[10] = test system: SNB-19 CNS
[11] = test system: RXF 393 renal
[12] = test system: RPMI-8226 leukemia
[13] = test system: KM12 colon
[14] = test system: MOLT-4 leukemia
[15] = test system: DU-145 prostate
[16] = test system: NCI-H23 lung
[17] = test system: OVCAR-4 ovarian
[18] = test system: SK-MEL-28 melanoma
[19] = test system: HS 578T breast
[20] = test system: XF 498 CNS

| Structure (SMILES) | TGI [1] [µM] | TGI [2] [µM] | TGI [3] [µM] | TGI [4] [µM] | TGI [5] [µM] | TGI [6] [µM] | TGI [7] [µM] | TGI [8] [µM] | TGI [9] [µM] | TGI [10] [µM] | TGI [11] [µM] | TGI [12] [µM] | TGI [13] [µM] | TGI [14] [µM] | TGI [15] [µM] | TGI [16] [µM] | TGI [17] [µM] | TGI [18] [µM] | TGI [19] [µM] | TGI [20] [µM] |
| --- | --- | --- | --- | --- | --- | --- | --- | --- | --- | --- | --- | --- | --- | --- | --- | --- | --- | --- | --- | --- |
| COC(=O)CC1C(COC(C)=O)OC(n2cc(C)c(=O)[nH]c2=O)C1OC(C)=O (stereo unspecified) | > 100 | > 100 | > 100 | > 100 | > 100 | > 100 | > 100 | > 100 | > 100 | > 100 | > 100 | > 100 | > 100 | > 100 | > 100 | > 100 | > 100 | > 100 | > 100 | – |
| Cc1ccc(O)c(C(c2ccc([N+](=O)[O-])cc2)c2cc(C)ccc2O)c1 | 43 | 32.1 | 28.7 | 15.2 | > 100 | 28.6 | > 100 | 44.1 | 7.61 | 26.2 | 26 | 29.8 | 20.7 | 26.3 | 27.4 | 21.5 | 23.8 | 38.4 | 24 | – |
| C=[N+](CNC(=O)CNC(=O)C(Cc1ccc([N+](=O)[O-])cc1)NC(=O)OC(C)(C)C)C(=O)CNC(=O)C(Cc1ccc([N+](=O)[O-])cc1)NC(=O)OC(C)(C)C (stereo unspecified) | > 100 | > 100 | > 100 | > 100 | > 100 | > 100 | > 100 | > 100 | 46.5 | > 100 | > 100 | 50.4 | > 100 | 67.4 | > 100 | > 100 | > 100 | 72.6 | > 100 | – |
| CN(C)CCC(O)(c1ccccc1)C(O)(CCN(C)C)c1ccccc1 (stereo unspecified) | > 100 | > 100 | – | > 100 | > 100 | > 100 | > 100 | > 100 | – | > 100 | – | > 100 | > 100 | > 100 | – | > 100 | > 100 | > 100 | – | > 100 |
| CN(C)Cc1cc(N=Nc2cccc(Cl)c2)ccc1O | 23.8 | 23.7 | 41 | 23.3 | 12.8 | 61.1 | 14.2 | 38.5 | 37.4 | 51.3 | 20.8 | 55.8 | 22 | 32.5 | 27.9 | 57.9 | 34.7 | 26.9 | 29.4 | – |
| Cc1n[nH]c(=O)n1C1CCCC1 | > 100 | > 100 | > 100 | > 100 | > 100 | > 100 | > 100 | > 100 | > 100 | > 100 | > 100 | > 100 | > 100 | > 100 | > 100 | > 100 | > 100 | > 100 | > 100 | – |
| Cc1ccc(N=NC2S/C(=C(\C#N)c3nc4ccccc4[nH]3)N(c3ccccc3)C2=O)cc1 (stereo unspecified) | > 100 | > 100 | > 100 | > 100 | > 100 | > 100 | > 100 | > 100 | > 100 | > 100 | 81.5 | – | – | – | – | > 100 | > 100 | > 100 | – | > 100 |
| COc1ccc(NC(=O)CC(=O)N2N=C(N(CCC#N)c3ccccc3Cl)CC2c2ccccc2)cc1 (stereo unspecified) | > 100 | > 100 | > 100 | > 100 | > 100 | > 100 | > 100 | > 100 | > 100 | > 100 | > 100 | > 100 | > 100 | > 100 | – | > 100 | > 100 | > 100 | – | > 100 |
| Cc1ccc(Cc2n[nH]c(=O)n2/N=C\CC/C=N\n2c(Cc3ccc(C)cc3)n[nH]c2=O)cc1 | > 100 | > 100 | 76.1 | > 100 | > 100 | > 100 | > 100 | > 100 | > 100 | > 100 | 65.3 | > 100 | > 100 | > 100 | > 100 | 84.6 | > 100 | > 100 | 45.5 | – |
| Cn1c(-c2cccs2)cc(-c2ccccc2)c1-c1cccs1 | > 100 | > 100 | > 100 | > 100 | > 100 | > 100 | > 100 | > 100 | > 100 | 47.5 | > 100 | > 100 | > 100 | > 100 | > 100 | > 100 | > 100 | > 100 | > 100 | – |
| C1=Nc2ccc(cc2)N=Cc2ccc(cc2)OCc2cccc(n2)COc2ccc1cc2 | > 100 | > 100 | > 100 | > 100 | > 100 | > 100 | > 100 | > 100 | > 100 | > 100 | > 100 | > 100 | > 100 | > 100 | > 100 | > 100 | > 100 | > 100 | > 100 | – |
| O=C(CC(=O)Nc1cccc(Cl)c1)NNCC(=O)Nc1nnc(-c2ccccc2)s1 | 86.8 | > 100 | – | > 100 | > 100 | > 100 | > 100 | > 100 | > 100 | > 100 | – | 86.6 | > 100 | > 100 | – | > 100 | 5.99 | > 100 | – | 76.3 |
